Tests used:
Type in all cases: in vivo
[1] = tested on: green foxtail (Setaria viridis); assay: Test B pre-/postemergence plant response; conditions: for Foxtail, Green plant response rating (0 to 100 scale): 0 is no effect, 13 to 15 days
In short: (§1)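 Seeds were sown in loam soil/sand blend and treated preemergence with compound in non-phytotoxic solvent mixture containing surfactant; postemergence sprays, same formulation, went onto plants 2 to 18 cm (1- to 4-leaf stage) in peat-based planting medium. Greenhouse 13 to 15 days, then visual rating versus untreated controls, 0 (no effect) to 100 (complete control).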

[2] = tested on: lambsquarters (Chenopodium album); assay: Test B pre-/postemergence plant response; conditions: for Lambsquarters plant response rating (0 to 100 scale): 0 is no effect, 13 to 15 days
In short: as §1

[3] = tested on: pigweed (Amaranthus retroflexus); assay: Test B pre-/postemergence plant response; conditions: for Pigweed plant response rating (0 to 100 scale): 0 is no effect, 13 to 15 days
In short: as §1

[4] = tested on: johnsongrass (Sorghum halepense); assay: Test B pre-/postemergence plant response; conditions: for Johnsongrass plant response rating (0 to 100 scale): 0 is no effect, 13 to 15 days
In short: as §1

[5] = tested on: giant foxtail (Setaria faberii); assay: Test B pre-/postemergence plant response; conditions: for Foxtail, Giant plant response rating (0 to 100 scale): 0 is no effect, 13 to 15 days
In short: as §1

corn (Zea mays) = assay: Test B pre-/postemergence plant response; conditions: for Corn plant response rating (0 to 100 scale): 0 is no effect, 13 to 15 days
In short: as §1

[6] = tested on: yellow nutsedge (Cyperus esculentus); assay: Test B pre-/postemergence plant response; conditions: for Nutsedge, Yellow plant response rating (0 to 100 scale): 0 is no effect, 13 to 15 days
In short: as §1

[7] = tested on: velvetleaf (Abutilon theophrasti); assay: Test B pre-/postemergence plant response; conditions: for Velvetleaf plant response rating (0 to 100 scale): 0 is no effect, 13 to 15 days
In short: as §1

soybean (Glycine max) = assay: Test B pre-/postemergence plant response; conditions: for Soybean plant response rating (0 to 100 scale): 62 g ai/ha, 0 is no effect, 13 to 15 days
In short: as §1

[8] = tested on: goosegrass (Eleusine indica); assay: Test B pre-/postemergence plant response; conditions: for Goosegrass plant response rating (0 to 100 scale): 0 is no effect, 13 to 15 days
In short: as §1

[9] = tested on: canarygrass (Phalaris minor); assay: Test B postemergence plant response; conditions: for Canarygrass plant response rating (0 to 100 scale): 62 g ai/ha, 0 is no effect, 13 to 15 days
In short: (§2)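 Plants at the 1- to 4-leaf stage (2 to 18 cm tall), grown in pots of peat moss/vermiculite medium with wetting agent and starter nutrients, received postemergence applications of test chemicals. After 13 to 15 days in a greenhouse, injury was rated visually against untreated controls on a 0 (no effect) to 100 (complete control) scale.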

[10] = tested on: chickweed (Stellaria media); assay: Test B postemergence plant response; conditions: for Chickweed plant response rating (0 to 100 scale): 62 g ai/ha, 0 is no effect, 13 to 15 days
In short: as §2

[11] = tested on: winter barley (Hordeum vulgare); assay: Test B postemergence plant response; conditions: for Barley plant response rating (0 to 100 scale): 62 g ai/ha, 0 is no effect, 13 to 15 days
In short: as §2

[12] = tested on: windgrass (Apera spica-venti); assay: Test B postemergence plant response; conditions: for Windgrass plant response rating (0 to 100 scale): 62 g ai/ha, 0 is no effect, 13 to 15 days
In short: as §2

[13] = 31 g ai/ha, postemergence, scale 0 to 100, 0 is no effect, 100 is complete control
[14] = 62 g ai/ha, postemergence, 100 is complete control
[15] = Postemergence, 125 g ai/ha, visual rating after 13 to 15 days, scale 0 (no effect) to 100 (complete control)
[16] = Postemergence, 250 g ai/ha, scale 0 to 100 (0 no effect, 100 complete control)
[17] = Preemergence, 31 g ai/ha, scale 0 to 100 (0 no effect, 100 complete control)
[18] = Preemergence, 62 g ai/ha, scale 0 to 100 (0 no effect, 100 complete control)
[19] = Preemergence, 125 g ai/ha, scale 0 to 100, 0 no effect, 100 complete control
[20] = Preemergence, 250 g ai/ha, 0 to 100 scale
[21] = postemergence, 100 is complete control

CCCc1ncc(C(=O)C2=C(O)CCCC2=O)c(=O)n1CC1CCCO1 (stereo not shown) [Compound 74]
100: Lambsquarters plant response rating [2, 20] | Plant response rating, Pigweed [3, 15] | Plant response rating, Pigweed [3, 16] | Plant response rating, Pigweed [3, 19] | Pigweed plant response rating [3, 20] | Velvetleaf plant response rating (0 to 100 scale) [7, 14] | Plant response rating, Velvetleaf [7, 15] | Plant response rating, Velvetleaf [7, 16] | Plant response rating, Velvetleaf [7, 18] | Plant response rating, Velvetleaf [7, 19] | Velvetleaf plant response rating [7, 20] | Plant response rating, Goosegrass [8, 19] | Goosegrass plant response rating [8, 20] | Plant response rating, Chickweed [10, 16]
0: Plant response rating, Foxtail, Green [1, 17] | Plant response rating, Foxtail, Green [1, 18] | Plant response rating, Foxtail, Green [1, 19] | Foxtail, Green plant response rating [1, 20] | Plant response rating, Johnsongrass [4, 13] | Johnsongrass plant response rating (0 to 100 scale) [4, 14] | Plant response rating, Johnsongrass [4, 17] | Plant response rating, Johnsongrass [4, 18] | Plant response rating, Johnsongrass [4, 19] | Johnsongrass plant response rating [4, 20] | Plant response rating, Foxtail, Giant [5, 17] | Plant response rating, Foxtail, Giant [5, 18] | Plant response rating, Corn (corn (Zea mays); [13]) | Corn plant response rating (0 to 100 scale) (corn (Zea mays); [14]) | Plant response rating, Corn (corn (Zea mays); [17]) | Plant response rating, Corn (corn (Zea mays); [18]) | Plant response rating, Corn (corn (Zea mays); [19]) | Corn plant response rating (corn (Zea mays); [20]) | Plant response rating, Canarygrass [9, 13] | Canarygrass plant response rating (0 to 100 scale) [9, 21] | Plant response rating, Canarygrass [9, 15] | Plant response rating, Canarygrass [9, 16] | Plant response rating, Barley [11, 13] | Barley plant response rating (0 to 100 scale) [11, 21] | Plant response rating, Barley [11, 15] | Plant response rating, Barley [11, 16]
85: Plant response rating, Foxtail, Green [1, 16] | Plant response rating, Johnsongrass [4, 16] | Plant response rating, Foxtail, Giant [5, 16] | Plant response rating, Goosegrass [8, 16] | Chickweed plant response rating (0 to 100 scale) [10, 21]
65: Plant response rating, Nutsedge, Yellow [6, 19] | Plant response rating, Goosegrass [8, 13]
60: Plant response rating, Corn (corn (Zea mays); [16]) | Windgrass plant response rating (0 to 100 scale) [12, 21]
80: Plant response rating, Foxtail, Green [1, 15] | Plant response rating, Goosegrass [8, 15] | Plant response rating, Windgrass [12, 15]
5: Plant response rating, Foxtail, Giant [5, 19] | Plant response rating, Windgrass [12, 13]
15: Plant response rating, Corn (corn (Zea mays); [15])
90: Plant response rating, Pigweed [3, 13] | Nutsedge, Yellow plant response rating [6, 20]
10: Plant response rating, Johnsongrass [4, 15]
55: Foxtail, Giant plant response rating (0 to 100 scale) [5, 14] | Plant response rating, Nutsedge, Yellow [6, 18]
20: Plant response rating, Foxtail, Green [1, 13] | Foxtail, Green plant response rating (0 to 100 scale) [1, 14] | Plant response rating, Nutsedge, Yellow [6, 13] | Nutsedge, Yellow plant response rating (0 to 100 scale) [6, 14] | Plant response rating, Nutsedge, Yellow [6, 17]
75: Plant response rating, Soybean (soybean (Glycine max); [13]) | Soybean plant response rating (0 to 100 scale) (soybean (Glycine max); [21]) | Goosegrass plant response rating (0 to 100 scale) [8, 14] | Plant response rating, Chickweed [10, 13]
98: Plant response rating, Lambsquarters [2, 16] | Plant response rating, Lambsquarters [2, 17] | Plant response rating, Lambsquarters [2, 18] | Plant response rating, Lambsquarters [2, 19] | Pigweed plant response rating (0 to 100 scale) [3, 14] | Plant response rating, Pigweed [3, 17] | Plant response rating, Pigweed [3, 18] | Plant response rating, Velvetleaf [7, 13] | Plant response rating, Velvetleaf [7, 17] | Plant response rating, Goosegrass [8, 17] | Plant response rating, Goosegrass [8, 18]
25: Plant response rating, Foxtail, Giant [5, 13]
95: Plant response rating, Lambsquarters [2, 13] | Lambsquarters plant response rating (0 to 100 scale) [2, 14] | Plant response rating, Lambsquarters [2, 15] | Plant response rating, Soybean (soybean (Glycine max); [15]) | Plant response rating, Soybean (soybean (Glycine max); [16]) | Plant response rating, Chickweed [10, 15] | Plant response rating, Windgrass [12, 16]
45: Foxtail, Giant plant response rating [5, 20]
70: Plant response rating, Foxtail, Giant [5, 15] | Plant response rating, Nutsedge, Yellow [6, 15] | Plant response rating, Nutsedge, Yellow [6, 16]

Cc1ccccc1-c1ncc(C(=O)C2=C(O)CCCC2=O)c(=O)n1-c1ccccc1 [Compound 82]
90: Plant response rating, Foxtail, Green [1, 16] | Velvetleaf plant response rating (0 to 100 scale) [7, 14] | Plant response rating, Velvetleaf [7, 15] | Soybean plant response rating (0 to 100 scale) (soybean (Glycine max); [21]) | Plant response rating, Chickweed [10, 13] | Chickweed plant response rating (0 to 100 scale) [10, 21]
10: Plant response rating, Nutsedge, Yellow [6, 13]
85: Plant response rating, Foxtail, Green [1, 15] | Plant response rating, Velvetleaf [7, 13] | Plant response rating, Goosegrass [8, 16]
35: Plant response rating, Canarygrass [9, 16]
100: Plant response rating, Lambsquarters [2, 15] | Plant response rating, Lambsquarters [2, 16] | Plant response rating, Pigweed [3, 15] | Plant response rating, Pigweed [3, 16] | Plant response rating, Chickweed [10, 16]
60: Plant response rating, Foxtail, Green [1, 13] | Foxtail, Green plant response rating (0 to 100 scale) [1, 14]
80: Plant response rating, Lambsquarters [2, 13] | Johnsongrass plant response rating (0 to 100 scale) [4, 14] | Plant response rating, Johnsongrass [4, 15] | Foxtail, Giant plant response rating (0 to 100 scale) [5, 14] | Plant response rating, Goosegrass [8, 15]
50: Plant response rating, Windgrass [12, 16]
75: Plant response rating, Pigweed [3, 13] | Plant response rating, Foxtail, Giant [5, 13] | Plant response rating, Soybean (soybean (Glycine max); [13]) | Plant response rating, Goosegrass [8, 13] | Goosegrass plant response rating (0 to 100 scale) [8, 14]
45: Plant response rating, Nutsedge, Yellow [6, 15]
55: Plant response rating, Nutsedge, Yellow [6, 16]
20: Plant response rating, Windgrass [12, 15]
0: Plant response rating, Corn (corn (Zea mays); [13]) | Plant response rating, Canarygrass [9, 13] | Canarygrass plant response rating (0 to 100 scale) [9, 21] | Plant response rating, Barley [11, 13] | Barley plant response rating (0 to 100 scale) [11, 21] | Plant response rating, Barley [11, 15]
98: Pigweed plant response rating (0 to 100 scale) [3, 14] | Plant response rating, Soybean (soybean (Glycine max); [16]) | Plant response rating, Chickweed [10, 15]
65: Plant response rating, Johnsongrass [4, 13]
95: Lambsquarters plant response rating (0 to 100 scale) [2, 14] | Plant response rating, Johnsongrass [4, 16] | Plant response rating, Foxtail, Giant [5, 15] | Plant response rating, Foxtail, Giant [5, 16] | Plant response rating, Velvetleaf [7, 16] | Plant response rating, Soybean (soybean (Glycine max); [15])
15: Plant response rating, Corn (corn (Zea mays); [16]) | Nutsedge, Yellow plant response rating (0 to 100 scale) [6, 14] | Plant response rating, Canarygrass [9, 15]
5: Corn plant response rating (0 to 100 scale) (corn (Zea mays); [14]) | Plant response rating, Corn (corn (Zea mays); [15]) | Plant response rating, Barley [11, 16] | Plant response rating, Windgrass [12, 13] | Windgrass plant response rating (0 to 100 scale) [12, 21]

— patent publication US8952024B2, “Herbicidal pyrimidone derivatives” (E I du Pont de Nemours and Company, priority 2009, dated 2015)
